This assay addresses T1, HMG-CoA reductase (Homo sapiens, UniProt P04035).
T1 construct: endogenous in cells; host or cells: HepG2 (Korea Cell Line Bank)
T1 sequence (P04035 1-888): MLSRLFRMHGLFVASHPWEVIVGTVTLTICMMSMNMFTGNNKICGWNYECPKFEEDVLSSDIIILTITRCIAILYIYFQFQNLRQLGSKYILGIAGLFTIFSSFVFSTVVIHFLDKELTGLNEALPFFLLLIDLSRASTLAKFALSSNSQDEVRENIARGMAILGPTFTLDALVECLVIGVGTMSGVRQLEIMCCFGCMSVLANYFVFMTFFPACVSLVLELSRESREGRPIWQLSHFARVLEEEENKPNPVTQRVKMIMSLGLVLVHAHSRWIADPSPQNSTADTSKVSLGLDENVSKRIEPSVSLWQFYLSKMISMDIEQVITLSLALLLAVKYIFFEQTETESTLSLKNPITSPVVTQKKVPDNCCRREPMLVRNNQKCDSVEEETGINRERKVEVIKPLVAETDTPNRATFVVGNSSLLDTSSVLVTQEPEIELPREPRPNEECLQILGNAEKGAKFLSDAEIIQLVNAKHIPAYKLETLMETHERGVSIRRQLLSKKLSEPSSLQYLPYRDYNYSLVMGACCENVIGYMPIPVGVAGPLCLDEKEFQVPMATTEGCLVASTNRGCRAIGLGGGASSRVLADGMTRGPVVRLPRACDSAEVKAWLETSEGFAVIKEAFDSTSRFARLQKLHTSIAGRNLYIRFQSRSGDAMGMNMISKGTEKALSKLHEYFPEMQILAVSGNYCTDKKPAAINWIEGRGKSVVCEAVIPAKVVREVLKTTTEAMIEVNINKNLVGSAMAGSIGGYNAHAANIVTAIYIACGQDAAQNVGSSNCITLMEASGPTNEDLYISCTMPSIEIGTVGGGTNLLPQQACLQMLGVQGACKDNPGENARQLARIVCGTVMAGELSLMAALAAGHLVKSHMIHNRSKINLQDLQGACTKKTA
Description: HMG-CoA reductase (HMGCR) degradation in HepG2 cells by western blotting. In kind it is cell-based. Conditions: treated for 18 hours, ratio of HMG-CoA reductase to GAPDH, read-out: DC50. In a few lines: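 Western blot read-out: HMGCR protein probed (1:500, 16 hours at 4° C) alongside GAPDH loading control on 15 μg BCA-normalised RIPA lysates. Lysates came from HepG2 cells (P105–P110) exposed for 18 hours to a 10-point, three-fold series starting at 3 μM.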
As to `C[C@H]1C=C2C=C[C@H](C)[C@H](CC[C@@H]3C[C@@H](O[Si](c4ccccc4)(c4ccccc4)C(C)(C)C)CC(=O)O3)[C@H]2[C@@H](OC(=O)NCCOCCOCCNc2cccc3c2C(=O)N(C2CCC(=O)NC2=O)C3=O)C1` (stereo partly drawn) [Compound 71, (1S,3R,7S,8S,8aR)-8-(2-((2R,4R)-4-((tert-butyldiphenylsilyl)oxy)-6-oxotetrahydro-2H-pyran-2-yl)ethyl)-3,7-dimethyl-1,2,3,7,8,8a-hexahydronaphthalen-1-yl (2-(2-(2-((2-(2,6-dioxopiperidin-3-yl)-1,3-dioxoisoindolin-4-yl)amino)ethoxy)ethoxy)ethyl)carbamate], the DC50 is less than 0.05 µM.
Under `C[C@H]1C=C2C=C[C@H](C)[C@H](CC[C@@H]3C[C@@H](O[Si](C)(C)C(C)(C)C)CC(=O)O3)[C@H]2[C@@H](OC(=O)NCCCOC2CCN(C(=O)COc3cccc4c3C(=O)N(C3CCC(=O)NC3=O)C4=O)CC2)C1` (stereo partly drawn) [Compound 134, (1S,3R,7S,8S,8aR)-8-(2-((2R,4R)-4-((tert-butyldimethylsilyl)oxy)-6-oxotetrahydro-2H-pyran-2-yl)ethyl)-3,7-dimethyl-1,2,3,7,8,8a-hexahydronaphthalen-1-yl (3-((1-(2-((2-(2,6-dioxopiperidin-3-yl)-1,3-dioxoisoindolin-4-yl)oxy)acetyl)piperidin-4-yl)oxy)propyl)carbamate] stands 0.05 to 0.5 µM; under `C[C@H]1C=C2C=C[C@H](C)[C@H](CC[C@@H]3C[C@@H](O[Si](C)(C)C(C)(C)C)CC(=O)O3)[C@H]2[C@@H](OC(=O)NCCCCCCCCCNc2cccc3c2C(=O)N(C2CCC(=O)NC2=O)C3=O)C1` (stereo partly drawn) [Compound 55, (1S,3R,7S,8S,8aR)-8-(2-((2R,4R)-4-((tert-butyldimethylsilyl)oxy)-6-oxotetrahydro-2H-pyran-2-yl)ethyl)-3,7-dimethyl-1,2,3,7,8,8a-hexahydronaphthalen-1-yl (9-((2-(2,6-dioxopiperidin-3-yl)-1,3-dioxoisoindolin-4-yl)amino)nonyl)carbamate], less than 0.05 µM; under `C[C@H]1C=C2C=C[C@H](C)[C@H](CC[C@@H]3C[C@@H](O)CC(=O)O3)[C@H]2[C@@H](OC(=O)NCCCCCCCCCCCNc2cccc3c2C(=O)N(C2CCC(=O)NC2=O)C3=O)C1` (stereo partly drawn) [Compound 64, (1S,3R,7S,8S,8aR)-8-(2-((2R,4R)-4-hydroxy-6-oxotetrahydro-2H-pyran-2-yl)ethyl)-3,7-dimethyl-1,2,3,7,8,8a-hexahydronaphthalen-1-yl (11-((2-(2,6-dioxopiperidin-3-yl)-1,3-dioxoisoindolin-4-yl)amino)undecyl)carbamate], less than 0.05 µM.
Next, `C[C@H]1C=C2C=C[C@H](C)[C@H](CC[C@@H]3C[C@@H](O)CC(=O)O3)[C@H]2[C@@H](OC(=O)NCCCCCCCNc2cccc3c2C(=O)N(C2CCC(=O)NC2=O)C3=O)C1` (stereo partly drawn) [Compound 60, (1S,3R,7S,8S,8aR)-8-(2-((2R,4R)-4-hydroxy-6-oxotetrahydro-2H-pyran-2-yl)ethyl)-3,7-dimethyl-1,2,3,7,8,8a-hexahydronaphthalen-1-yl (7-((2-(2,6-dioxopiperidin-3-yl)-1,3-dioxoisoindolin-4-yl)amino)heptyl)carbamate]: 0.05 to 0.5 µM.
Next, `Cc1ncsc1-c1ccc(CNC(=O)[C@@H]2C[C@@H](O)CN2C(=O)[C@@H](NC(=O)COCCOCCOCCOCCNC(=O)O[C@H]2C[C@@H](C)C=C3C=C[C@H](C)[C@H](CC[C@@H]4C[C@@H](O[Si](C)(C)C(C)(C)C)CC(=O)O4)[C@H]32)C(C)(C)C)cc1` [Compound 21, (1S,3R,7S,8S,8aR)-8-(2-((2R,4R)-4-((tert-butyldimethylsilyl)oxy)-6-oxotetrahydro-2H-pyran-2-yl)ethyl)-3,7-dimethyl-1,2,3,7,8,8a-hexahydronaphthalen-1-yl ((S)-16-((2S,4R)-4-hydroxy-2-((4-(4-methylthiazol-5-yl)benzyl)carbamoyl)pyrrolidine-1-carbonyl)-17,17-dimethyl-14-oxo-3,6,9,12-tetraoxa-15-azaoctadecyl)carbamate]: less than 0.05 µM; `C[C@H]1C=C2C=C[C@H](C)[C@H](CC[C@@H]3C[C@@H](O)CC(=O)O3)[C@H]2[C@@H](OC(=O)NCCCCCCN2CCC(Nc3cccc4c3C(=O)N(C3CCC(=O)NC3=O)C4=O)CC2)C1` (stereo partly drawn) [Compound 127, (1S,3R,7S,8S,8aR)-8-(2-((2R,4R)-4-hydroxy-6-oxotetrahydro-2H-pyran-2-yl)ethyl)-3,7-dimethyl-1,2,3,7,8,8a-hexahydronaphthalen-1-yl (6-(4-((2-(2,6-dioxo piperidin-3-yl)-1,3-dioxoisoindolin-4-yl)amino)piperidin-1-yl)hexyl)carbamate]: 0.05 to 0.5 µM.
Consider `Cc1ncsc1-c1ccc(CNC(=O)[C@@H]2C[C@@H](O)CN2C(=O)[C@@H](NC(=O)CCCc2cn(CCCCNC(=O)O[C@H]3C[C@@H](C)C=C4C=C[C@H](C)[C@H](CC[C@@H]5C[C@@H](O)CC(=O)O5)[C@H]43)nn2)C(C)(C)C)cc1` [Compound 161, (1S,3R,7S,8S,8aR)-8-(2-((2R,4R)-4-hydroxy-6-oxotetrahydro-2H-pyran-2-yl)ethyl)-3,7-dimethyl-1,2,3,7,8,8a-hexahydronaphthalen-1-yl (4-(4-(4-(((S)-1-((2S,4R)-4-hydroxy-2-((4-(4-methylthiazol-5-yl)benzyl)carbamoyl)pyrrolidin-1-yl)-3,3-dimethyl-1-oxobutan-2-yl)amino)-4-oxobutyl)-1H-1,2,3-triazol-1-yl)butyl)carbamate], for which the half-maximal degradation concentration (DC50) is less than 0.05 µM.
Consider `Cc1ncsc1-c1ccc(CNC(=O)[C@@H]2C[C@@H](O)CN2C(=O)[C@@H](NC(=O)CCCCCCCCCCNC(=O)O[C@H]2C[C@@H](C)C=C3C=C[C@H](C)[C@H](CC[C@@H](O)C[C@@H](O)CC(=O)O)[C@H]32)C(C)(C)C)cc1` [Compound 154, (3R,5R)-3,5-dihydroxy-7-((1S,2S,6R,8S,8aR)-8-(((11-(((S)-1-((2S,4R)-4-hydroxy-2-((4-(4-methylthiazol-5-yl)benzyl)carbamoyl)pyrrolidin-1-yl)-3,3-dimethyl-1-oxobutan-2-yl)amino)-11-oxoundecyl)carbamoyl)oxy)-2,6-dimethyl-1,2,6,7,8,8a-hexahydronaphthalen-1-yl)heptanoic acid], for which the DC50 was more than 0.5 µM.
In the case of `C[C@H]1C=C2C=C[C@H](C)[C@H](CC[C@@H]3C[C@@H](O[Si](C)(C)C(C)(C)C)CC(=O)O3)[C@H]2[C@@H](OC(=O)NCCOCCOCCOCC(=O)Nc2cccc3c2C(=O)N(C2CCC(=O)NC2=O)C3=O)C1` (stereo partly drawn) [Compound 98, (1S,3R,7S,8S,8aR)-8-(2-((2R,4R)-4-((tert-butyldimethylsilyl)oxy)-6-oxotetrahydro-2H-pyran-2-yl)ethyl)-3,7-dimethyl-1,2,3,7,8,8a-hexahydronaphthalen-1-yl (2-(2-(2-(2-((2-(2,6-dioxopiperidin-3-yl)-1,3-dioxoisoindolin-4-yl)amino)-2-oxoethoxy)ethoxy)ethoxy)ethyl)carbamate], the half-maximal degradation concentration (DC50) was less than 0.05 µM.

One may read the DC50 as the concentration at which degradation of the target reaches its halfway point.
